From ChEMBL document CHEMBL1833797, “Microwave assisted synthesis and antimicrobial evaluation of new fused pyran derivatives bearing 2-morpholinoquinoline nucleus” (2011)
Converted amounts (≈) assume the structure as drawn.

Assays:
Escherichia coli = assay: Antimicrobial activity against Escherichia coli MTCC 443 for 24 hrs by microdilution method; format: functional; conditions: MTCC 443, 24 h
Salmonella typhi = assay: Antimicrobial activity against Salmonella typhi MTCC 98 for 24 hrs by microdilution method; format: functional, Salmonella enterica subsp. enterica serovar Typhi; conditions: Salmonella enterica, MTCC 98, 24 h
Clostridium tetani = assay: Antimicrobial activity against Clostridium tetani MTCC 449 for 24 hrs by microdilution method; format: functional; conditions: MTCC 449, 24 h
Bacillus subtilis = assay: Antimicrobial activity against Bacillus subtilis MTCC 441 for 24 hrs by microdilution method; format: functional; conditions: MTCC 441, 24 h
Vibrio cholerae = assay: Antimicrobial activity against Vibrio cholerae MTCC 3906 for 24 hrs by microdilution method; format: functional; conditions: MTCC 3906, 24 h
Candida albicans = assay: Antifungal activity against Candida albicans MTCC 227 for 48 hrs by microdilution method; format: functional
Streptococcus pneumoniae = assay: Antimicrobial activity against Streptococcus pneumoniae MTCC 1936 for 24 hrs by microdilution method; format: functional; conditions: MTCC 1936, 24 h
Aspergillus fumigatus = assay: Antifungal activity against Aspergillus fumigatus MTCC 3008 for 48 hrs by microdilution method; format: functional

## N#CC1=C(N)OC2=C(C(=O)c3ccccc3C2=O)C1c1cc2ccccc2nc1N1CCOCC1 (centres undefined)
Escherichia coli
  MIC: 200 µg/mL (≈ 431 µM)
Salmonella typhi
  MIC: 12.5 µg/mL (≈ 26.9 µM)
Clostridium tetani
  MIC: 500 µg/mL (≈ 1080 µM)
Bacillus subtilis
  MIC: 500 µg/mL (≈ 1080 µM)
Vibrio cholerae
  MIC: 500 µg/mL (≈ 1080 µM)
Candida albicans; MTCC 227, 48 h
  MIC: 100 µg/mL (≈ 215 µM)
Streptococcus pneumoniae
  MIC: 500 µg/mL (≈ 1080 µM)
Aspergillus fumigatus; MTCC 3008, 48 h
  MIC: > 1000 µg/mL

## Cc1ccc2nc(N3CCOCC3)c(C3C(C#N)=C(N)OC4=C3C(=O)CCC4)cc2c1 (centres undefined)
Escherichia coli
  MIC: 200 µg/mL (≈ 480 µM)
Salmonella typhi
  MIC: 200 µg/mL (≈ 480 µM)
Clostridium tetani
  MIC: 200 µg/mL (≈ 480 µM)
Bacillus subtilis
  MIC: 200 µg/mL (≈ 480 µM)
Vibrio cholerae
  MIC: 200 µg/mL (≈ 480 µM)
Candida albicans; MTCC 227, 48 h
  MIC: 1000 µg/mL (≈ 2400 µM)
Streptococcus pneumoniae
  MIC: 100 µg/mL (≈ 240 µM)
Aspergillus fumigatus; MTCC 3008, 48 h
  MIC: > 1000 µg/mL

## CC1(C)S[C@@H]2[C@H](NC(=O)[C@H](N)c3ccccc3)C(=O)N2[C@H]1C(=O)O [AMPICILLIN]
Escherichia coli
  MIC: 100 µg/mL (≈ 286 µM)
Salmonella typhi
  MIC: 100 µg/mL (≈ 286 µM)
Clostridium tetani
  MIC: 250 µg/mL (≈ 715 µM)
Bacillus subtilis
  MIC: 250 µg/mL (≈ 715 µM)
Vibrio cholerae
  MIC: 100 µg/mL (≈ 286 µM)
Streptococcus pneumoniae
  MIC: 100 µg/mL (≈ 286 µM)

## N#CC1=C(N)Oc2c(ccc3ccccc23)C1c1cc2ccccc2nc1N1CCOCC1 (centres undefined)
Escherichia coli
  MIC: 500 µg/mL (≈ 1150 µM)
Salmonella typhi
  MIC: 500 µg/mL (≈ 1150 µM)
Clostridium tetani
  MIC: 250 µg/mL (≈ 575 µM)
Bacillus subtilis
  MIC: 250 µg/mL (≈ 575 µM)
Vibrio cholerae
  MIC: 500 µg/mL (≈ 1150 µM)
Candida albicans; MTCC 227, 48 h
  MIC: 500 µg/mL (≈ 1150 µM)
Streptococcus pneumoniae
  MIC: 500 µg/mL (≈ 1150 µM)
Aspergillus fumigatus; MTCC 3008, 48 h
  MIC: > 1000 µg/mL

## NYSTATIN
Candida albicans
  MIC: 100 µg/mL
Aspergillus fumigatus
  MIC: 100 µg/mL

## COc1ccc2nc(N3CCOCC3)c(C3C(C#N)=C(N)OC4=C3C(=O)CC(C)(C)C4)cc2c1 (centres undefined)
Escherichia coli
  MIC: 500 µg/mL (≈ 1090 µM)
Salmonella typhi
  MIC: 500 µg/mL (≈ 1090 µM)
Clostridium tetani
  MIC: 500 µg/mL (≈ 1090 µM)
Bacillus subtilis
  MIC: 100 µg/mL (≈ 217 µM)
Vibrio cholerae
  MIC: 500 µg/mL (≈ 1090 µM)
Candida albicans; MTCC 227, 48 h
  MIC: 1000 µg/mL (≈ 2170 µM)
Streptococcus pneumoniae
  MIC: 100 µg/mL (≈ 217 µM)
Aspergillus fumigatus; MTCC 3008, 48 h
  MIC: 100 µg/mL (≈ 217 µM)

## N#CC1=C(N)OC2=C(C(=O)CCC2)C1c1cc2ccccc2nc1N1CCOCC1 (centres undefined)
Escherichia coli
  MIC: 250 µg/mL (≈ 621 µM)
Salmonella typhi
  MIC: 250 µg/mL (≈ 621 µM)
Clostridium tetani
  MIC: 250 µg/mL (≈ 621 µM)
Bacillus subtilis
  MIC: 100 µg/mL (≈ 248 µM)
Vibrio cholerae
  MIC: 250 µg/mL (≈ 621 µM)
Candida albicans; MTCC 227, 48 h
  MIC: 1000 µg/mL (≈ 2480 µM)
Streptococcus pneumoniae
  MIC: 100 µg/mL (≈ 248 µM)
Aspergillus fumigatus; MTCC 3008, 48 h
  MIC: > 1000 µg/mL

## Cc1n[nH]c2c1C(c1cc3ccccc3nc1N1CCOCC1)C(C#N)=C(N)O2 (centres undefined)
Escherichia coli
  MIC: 62.5 µg/mL (≈ 161 µM)
Salmonella typhi
  MIC: 100 µg/mL (≈ 257 µM)
Clostridium tetani
  MIC: 100 µg/mL (≈ 257 µM)
Bacillus subtilis
  MIC: 250 µg/mL (≈ 644 µM)
Vibrio cholerae
  MIC: 200 µg/mL (≈ 515 µM)
Candida albicans; MTCC 227, 48 h
  MIC: 1000 µg/mL (≈ 2570 µM)
Streptococcus pneumoniae
  MIC: 250 µg/mL (≈ 644 µM)
Aspergillus fumigatus; MTCC 3008, 48 h
  MIC: 1000 µg/mL (≈ 2570 µM)

## COc1ccc2nc(N3CCOCC3)c(C3C(C#N)=C(N)Oc4[nH]nc(C)c43)cc2c1 (centres undefined)
Escherichia coli
  MIC: 250 µg/mL (≈ 597 µM)
Salmonella typhi
  MIC: 250 µg/mL (≈ 597 µM)
Clostridium tetani
  MIC: 250 µg/mL (≈ 597 µM)
Bacillus subtilis
  MIC: 200 µg/mL (≈ 478 µM)
Vibrio cholerae
  MIC: 250 µg/mL (≈ 597 µM)
Candida albicans; MTCC 227, 48 h
  MIC: 250 µg/mL (≈ 597 µM)
Streptococcus pneumoniae
  MIC: 200 µg/mL (≈ 478 µM)
Aspergillus fumigatus; MTCC 3008, 48 h
  MIC: 500 µg/mL (≈ 1190 µM)

## COc1ccc2nc(N3CCOCC3)c(C3C(C#N)=C(N)Oc4cc(O)ccc43)cc2c1 (centres undefined)
Escherichia coli
  MIC: 250 µg/mL (≈ 581 µM)
Salmonella typhi
  MIC: 250 µg/mL (≈ 581 µM)
Clostridium tetani
  MIC: 250 µg/mL (≈ 581 µM)
Bacillus subtilis
  MIC: 200 µg/mL (≈ 465 µM)
Vibrio cholerae
  MIC: 250 µg/mL (≈ 581 µM)
Candida albicans; MTCC 227, 48 h
  MIC: 500 µg/mL (≈ 1160 µM)
Streptococcus pneumoniae
  MIC: 12.5 µg/mL (≈ 29 µM)
Aspergillus fumigatus; MTCC 3008, 48 h
  MIC: 500 µg/mL (≈ 1160 µM)

## CCn1cc(C(=O)O)c(=O)c2cc(F)c(N3CCNCC3)cc21 [NORFLOXACIN]
Escherichia coli
  MIC: 10 µg/mL (≈ 31.3 µM)
Salmonella typhi
  MIC: 10 µg/mL (≈ 31.3 µM)
Clostridium tetani
  MIC: 50 µg/mL (≈ 157 µM)
Bacillus subtilis
  MIC: 100 µg/mL (≈ 313 µM)
Vibrio cholerae
  MIC: 10 µg/mL (≈ 31.3 µM)
Streptococcus pneumoniae
  MIC: 10 µg/mL (≈ 31.3 µM)

## COc1ccc2nc(N3CCOCC3)c(C3C(C#N)=C(N)Oc4c3c(=O)oc3ccccc43)cc2c1 (centres undefined)
Escherichia coli
  MIC: 500 µg/mL (≈ 1040 µM)
Salmonella typhi
  MIC: 500 µg/mL (≈ 1040 µM)
Clostridium tetani
  MIC: 500 µg/mL (≈ 1040 µM)
Bacillus subtilis
  MIC: 200 µg/mL (≈ 415 µM)
Vibrio cholerae
  MIC: 500 µg/mL (≈ 1040 µM)
Candida albicans; MTCC 227, 48 h
  MIC: 200 µg/mL (≈ 415 µM)
Streptococcus pneumoniae
  MIC: 200 µg/mL (≈ 415 µM)
Aspergillus fumigatus; MTCC 3008, 48 h
  MIC: 1000 µg/mL (≈ 2070 µM)

## COC1=CC(=O)C[C@@H](C)[C@]12Oc1c(Cl)c(OC)cc(OC)c1C2=O [GRISEOFULVIN]
Candida albicans; MTCC 227, 48 h
  MIC: 500 µg/mL (≈ 1420 µM)
Aspergillus fumigatus; MTCC 3008, 48 h
  MIC: 100 µg/mL (≈ 283 µM)

## Cc1ccc2nc(N3CCOCC3)c(C3C(C#N)=C(N)OC4=C3C(=O)c3ccccc3C4=O)cc2c1 (centres undefined)
Escherichia coli
  MIC: 250 µg/mL (≈ 522 µM)
Salmonella typhi
  MIC: 100 µg/mL (≈ 209 µM)
Clostridium tetani
  MIC: 250 µg/mL (≈ 522 µM)
Bacillus subtilis
  MIC: 200 µg/mL (≈ 418 µM)
Vibrio cholerae
  MIC: 250 µg/mL (≈ 522 µM)
Candida albicans; MTCC 227, 48 h
  MIC: > 1000 µg/mL
Streptococcus pneumoniae
  MIC: 100 µg/mL (≈ 209 µM)
Aspergillus fumigatus; MTCC 3008, 48 h
  MIC: > 1000 µg/mL

## Cc1ccc2nc(N3CCOCC3)c(C3C(C#N)=C(N)Oc4c3c(=O)oc3ccccc43)cc2c1 (centres undefined)
Escherichia coli
  MIC: 250 µg/mL (≈ 536 µM)
Salmonella typhi
  MIC: 250 µg/mL (≈ 536 µM)
Clostridium tetani
  MIC: 250 µg/mL (≈ 536 µM)
Bacillus subtilis
  MIC: 500 µg/mL (≈ 1070 µM)
Vibrio cholerae
  MIC: 12.5 µg/mL (≈ 26.8 µM)
Candida albicans; MTCC 227, 48 h
  MIC: 500 µg/mL (≈ 1070 µM)
Streptococcus pneumoniae
  MIC: 500 µg/mL (≈ 1070 µM)
Aspergillus fumigatus; MTCC 3008, 48 h
  MIC: 500 µg/mL (≈ 1070 µM)
